{
  "source": "patent US20250288584A1",
  "about": "“COMBINATIONS COMPRISING POSITIVE ALLOSTERIC MODULATORS OR ORTHOSTERIC AGONISTS OF METABOTROPIC GLUTAMATERGIC RECEPTOR SUBTYPE 2 AND THEIR USE” (JANSSEN PHARMACEUTICA NV, priority 2014, published 2025)",
  "origin": "cited, not measured here",
  "key": {"MES seizures": {"test_system": "MES seizures", "conditions": "in vivo; cited from earlier work"}, "6 Hz seizures": {"test_system": "6 Hz seizures", "conditions": "dose-dependent manner; cited from earlier work"}},
  "data": [
    {"compound": "N[C@@]1(C(=O)O)CS[C@H]2[C@H](C(=O)O)[C@H]21", "note": "[LY389795]", "values": [
      {"measurement": "activity in maximal electroshock (MES) seizure test", "setting": "MES seizures", "result": "ineffective"},
      {"measurement": "activity in the 6 Hz model", "setting": "6 Hz seizures", "result": "effective"}
    ]}
  ]
}
